What was measured:
HPV16 PsVs [1] = test: Post-attachment and time-course HPV16 PsV infection of HaCaT cells; format: cell-based
Experimental: FIG. 6. PolyR inhibits HPV16 PsV infection at pre-attachment and post-attachment stages. (A) Infection of HaCaT cells with HPV16. Semi-confluent HaCaT cells were left untreated with polyR (H16) or exposed to HPV16 PsV 1 h before (polyR/H16) or one hour after […] (H16/PolyR) treatment, were subjected to infectivity measurements after a 24-hour incubation at 37° C. (as described in FIG. 1). (B) Time-course experiments of HPV infection in the absence or presence of polyR. Untreated control cells were infected with HPV16 PsV (HPV16). HaCaT cells were treated with 1 μM polyR before (+1 h polyR/HPV16), concurrently (0 h polyR/HPV16) or at one hour, two hours, four hours, six hours, or eight hours post-attachment of HPV16 PsVs. Infection was scored at 24 hours post HPV attachment and shift to 37° C.
FIG. 18. PrS post-attachment effect on HPV infection. HaCaT cell were incubated with 500 vge/cell HPV PsVs at RT for one hour before addition of 1.5 μM PrS complexed with 0.1% HMW HA or with 3 μM LMW HA. Infection scored 24 after infection as described in FIG. 12.
FIG. 20. Time-course experiments of HPV infection in the presence of PrS or HA:PrS complex. (A) PrS; (B) HA:PrS complex. HaCaT cells were treated with 2 μM PrS or 2 μM PrS associated with 0.1% HMW HA at indicated times post-attachment of HPV16 PsVs, and infection was scored 24 hours after infection as described in FIG. 12. Time-point zero represents initial PsV inoculation.
The data above show clearly that polyR can inhibit HPV binding to cells and infection, but that polyR cannot displace HPV after bound to cells. To determine whether polyR can alter HPV infectivity if it is present after HPV is bound to cells, the infection levels of virus-exposed cells that are either pre-treated with polyR before virus binding, polyR-treated after HPV binding, or untreated with polyR were compared. […] This indicates a second mechanism whereby polyR can block HPV infection after virus is bound to cells.
Next, the effectiveness of polyR treatment in blocking infection when added at increasing times post HPV binding to cells was tested. This time-course experiment confirmed that polyR affects post-attachment stages of virus infection. HaCaT cells were treated with polyR one hour prior to virus exposure, concurrently with virus exposure, and at increasing times after virus was bound and unbound virus was removed. Infection efficiency was measured after a 24-hour incubation at 37° C. The cells infected with HPV16 PsV in the absence of polyR (FIG. 6B, HPV16) was considered as 100% infection efficiency.
To investigate PrS post-attachment effect on infection, HaCaT cell were exposed with HPV PsVs at room temperature for one hour before addition of PrS complexed with heavy molecular weight (HMW) HA or with low molecular weight (LMW) HA.
Time-course experiments in which HaCaT cells were exposed to PrS or PrS:HA complex at various times after attachment with HPV16 PsVs confirmation this mechanism.

HPV16 PsVs [2] = test: Internalization of cell-bound HPV16 PsV into HaCaT cells (L1 immunoblot); format: cell-based; conditions: HPV-bound HaCaT cells incubated 4 h
Experimental: FIG. 8. PolyR reduces the internalization of cell membrane-bound HPV16 PsV. HaCaT cells were incubated with HPV16 PsVs for one hour at 4° C. Unbound virus was removed from the cells by incubation with 0.25% trypsin/5 mM EDTA for 15 minutes at 37° C. Cells were pelleted and washed several times with CM (to neutralize pH) and with ice-cold PBS before adding ice-cold 0.1 M sodium acetate buffer (pH 4.5) containing 0.5 M NaCl. After a two-minute incubation on ice, cells were washed three times with PBS and lysed with RIPA [50 mM Tris (pH 7.5), 0.1% SDS, 1% sodium deoxycholate, 150 mM NaCl, 1 mM EDTA, 1% Triton X-100, 1 mM sodium vanadate, 1 mM PMSF, 10 ng/ml leupeptin, 10 ng/ml aprotinin] buffer. Immuno-blotting was performed, and the L1 protein was detected using a HPV16 L1-specific mAb (Camvir-1, sc-47699, Santa Cruz Biotechnology, Inc., Dallas, Tex.).
To investigate the effect of polyR on the penetration of cell-bound virus into host cells, HPV-bound cells were incubated for four hours in the absence or presence of polyR. […] Immuno-blotting was performed, and the L1 protein was detected using a HPV16 L1 specific mAb (Camvir-1; Santa Cruz Biotechnology, Inc., Dallas, Tex.). As HPV16 L1 is proteolytically processed during cell entry, two forms of L1 (full-length 55 kDa and the 25 kDa processed form) were detected. […]

poly-L-arginine [polyR]
inhibition of HPV16 infection (HPV16 PsVs [1]; 1 μM, added 1 h before virus exposure): > 95% | inhibition of HPV16 infection (HPV16 PsVs [1]; 1 μM, added 1 h to 2 h post HPV binding): Strong infection inhibition | reduction in HPV infection (HPV16 PsVs [1]; 1 μM, added 4 h post infection): approximately 75% | inhibition of HPV16 infection (HPV16 PsVs [1]; 1 μM, added 6 h to 8 h post infection): Only mild inhibition | inhibition of HPV16 infection (HPV16 PsVs [1]; 1 μM, added simultaneously with HPV (0 h)): same magnitude of infection inhibition | inhibition of infection when added after virus binding versus before (HPV16 PsVs [1]; 2 μM, 1 h after versus 1 h before HPV16 PsV, 24 h): as effective at inhibiting HPV infection when added after virus was bound to cells as it was when added prior to virus exposure | internalized L1 forms (55 kDa full-length, 25 kDa processed) (HPV16 PsVs [2]): decreased levels of 55 kDa L1 protein and increased amounts of the 25 kDa proteolytic processed L1 form | virus internalization rate (sum of IDVs of 55 kDa and 25 kDa L1 bands) (HPV16 PsVs [2]): had no effect on the virus internalization rate

— patent publication US11045519B2, “Arginine-rich polypeptide compositions and methods of using same” (UNM Rainforest Innovations, priority 2017, dated 2021)
